According to patent US20190367516A1 (Bayer Pharma Aktiengesellschaft, priority 2015, published 2019):

Biological target: T1, human M2 receptor (Homo sapiens, UniProt P08172)
T1 sequence (P08172 1-466): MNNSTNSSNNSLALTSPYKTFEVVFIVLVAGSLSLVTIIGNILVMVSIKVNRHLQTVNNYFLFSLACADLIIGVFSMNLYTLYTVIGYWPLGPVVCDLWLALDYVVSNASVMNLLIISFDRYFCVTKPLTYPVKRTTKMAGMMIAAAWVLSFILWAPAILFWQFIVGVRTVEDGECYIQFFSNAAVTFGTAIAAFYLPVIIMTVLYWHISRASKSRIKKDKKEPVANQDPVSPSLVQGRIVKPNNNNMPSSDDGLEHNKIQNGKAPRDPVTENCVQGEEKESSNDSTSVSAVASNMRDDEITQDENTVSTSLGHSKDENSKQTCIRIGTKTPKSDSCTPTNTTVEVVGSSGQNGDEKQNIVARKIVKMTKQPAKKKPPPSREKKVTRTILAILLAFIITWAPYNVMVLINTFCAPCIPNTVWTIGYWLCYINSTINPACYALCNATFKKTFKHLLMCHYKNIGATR
Conditions: Receptor activity EC50, M2-GIRK1/4 activation test, acetylcholine at EC20; allosteric potency; in some cases mean values from two or more determinations

EC50 [nM]	Structure (SMILES)
10	CCCC(NC(=O)c1cn(-c2ccc(F)cc2F)c2nc(N3CC[C@H](F)C3)ccc2c1=O)C(F)(F)F (stereo partly drawn) [Example 66, 1-(2,4-Difluorophenyl)-7-[(3S)-3-fluoropyrrolidin-1-yl]-4-oxo-N-[1,1,1-trifluoropentan-2-yl]-1,4-dihydro-1,8-naphthyridine-3-carboxamide]
138	O=C(NCC(F)(F)F)c1cn(-c2ccc(F)cc2F)c2nc(N3CC[C@H](F)C3)ccc2c1=O [Example 67, 1-(2,4-Difluorophenyl)-7-[(3S)-3-fluoropyrrolidin-1-yl]-4-oxo-N-(2,2,2-trifluoroethyl)-1,4-dihydro-1,8-naphthyridine-3-carboxamide]
58	O=C(NC1(C(F)(F)F)CC1)c1cn(-c2ccc(F)cc2F)c2nc(N3CC[C@H](F)C3)ccc2c1=O [Example 68, 1-(2,4-Difluorophenyl)-7-[(3S)-3-fluoropyrrolidin-1-yl]-4-oxo-N-[1-(trifluormethyl)cyclopropyl]-1,4-dihydro-1,8-naphthyridine-3-carboxamide]
13	CC(C)C(NC(=O)c1cn(-c2ccc(F)cc2F)c2nc(N3CC[C@H](F)C3)ccc2c1=O)C(F)(F)F (stereo partly drawn) [Example 69, 1-(2,4-Difluorophenyl)-7-[(3S)-3-fluoropyrrolidin-1-yl]-4-oxo-N-[1,1,1-trifluoro-3-methylbutan-2-yl]-1,4-dihydro-1,8-naphthyridine-3-carboxamide]
53	O=C(NC12CC3CC(CC(C3)C1)C2)c1cn(-c2ccc(F)cc2F)c2nc(N3CC[C@@H](F)C3)ccc2c1=O [Example 72, 1-(2,4-Difluorophenyl)-7-[(3R)-3-fluoropyrrolidin-1-yl]-4-oxo-N-(tricyclo[3.3.1.1^3,7]dec-1-yl)-1,4-dihydro-1,8-naphthyridine-3-carboxamide]
73	CC[C@H](NC(=O)c1cn(-c2ccc(F)cc2F)c2nc(N3CCC(F)(F)C3)ccc2c1=O)C(F)(F)F [Example 75, 1-(2,4-Difluorophenyl)-7-(3,3-difluoropyrrolidin-1-yl)-4-oxo-N-[(2S)-1,1,1-trifluorobutan-2-yl]-1,4-dihydro-1,8-naphthyridine-3-carboxamide]
79	CC(C)CC(NC(=O)c1cn(-c2ccc(F)cc2F)c2nc(N3CCS(=O)(=O)C3)ccc2c1=O)C(F)(F)F (stereo not drawn) [Example 78, 1-(2,4-Difluorophenyl)-7-(1,1-dioxido-1,3-thiazolidin-3-yl)-4-oxo-N-[1,1-trifluoro-4-methylpentan-2-yl]-1,4-dihydro-1,8-naphthyridine-3-carboxamide]
73	CC(C)CC(NC(=O)c1cn(-c2ccc(F)cc2F)c2nc(NCCO)ccc2c1=O)C(F)(F)F (stereo not drawn) [Example 80, 1-(2,4-Difluorophenyl)-7-[(2-hydroxyethyl)amino]-4-oxo-N-[1,1,1-trifluoro-4-methylpentan-2-yl]-1,4-dihydro-1,8-naphthyridine-3-carboxamide]
102	CCCC(NC(=O)c1cn(-c2ccc(F)cc2F)c2nc(NCCO)ccc2c1=O)C(F)(F)F (stereo not drawn) [Example 81, 1-(2,4-Difluorophenyl)-7-[(2-hydroxyethyl)amino]-4-oxo-N-[1,1,1-trifluoropentan-2-yl]-1,4-dihydro-1,8-naphthyridine-3-carboxamide]
42	CC(C)CC(NC(=O)c1cn(-c2ccc(F)cc2F)c2nc(NCCF)ccc2c1=O)C(F)(F)F (stereo not drawn) [Example 88]
58	O=C(NC12CC3CC(CC(F)(C3)C1)C2)c1cn(-c2ccc(F)cc2F)c2nc(NCC(F)(F)F)ccc2c1=O [Example 91, 1-(2,4-Difluorophenyl)-N-(3-fluorotricyclo[3.3.1.1^3,7]dec-1-yl)-4-oxo-7-[(2,2,2-trifluoroethyl)amino]-1,4-dihydro-1,8-naphthyridine-3-carboxamide]

Further lines, the compound ahead of its results:

Structure (SMILES)	EC50 [nM]
CN(C)c1ccc2c(=O)c(C(=O)NC34CCC(F)(CC3)CC4)cn(-c3ccc(F)cc3F)c2n1 [Example 47, 1-(2,4-Difluorophenyl)-7-(dimethylamino)-N-(4-fluorobicyclo[2.2.2]oct-1-yl)-4-oxo-1,4-dihydro-1,8-naphthyridine-3-carboxamide]	43
CN(C)c1ccc2c(=O)c(C(=O)NCc3c(Cl)cccc3Cl)cn(-c3ccc(F)cc3F)c2n1 [Example 49, N-(2,6-Dichlorobenzyl)-1-(2,4-difluorophenyl)-7-(dimethylamino)-4-oxo-1,4-dihydro-1,8-naphthyridine-3-carboxamide]	89
CN(C)c1ccc2c(=O)c(C(=O)NCc3ccc(F)cc3F)cn(-c3ccc(F)cc3F)c2n1 [Example 50, N-(2,4-Dmuorobenzyl)-1-(2,4-difluorophenyl)-7-(dimethylamino)-4-oxo-1,4-dihydro-1,8-naphthyridine-3-carboxamide]	158
Cc1cccc(C)c1CNC(=O)c1cn(-c2ccc(F)cc2F)c2nc(N(C)C)ccc2c1=O [Example 51, 1-(2,4-Difluorophenyl)-7-(dimethylamino)-N-(2,6-dimethylbenzyl)-4-oxo-1,4-dihydro-1,8-naphthyridine-3-carboxamide]	100
CN(C)c1ccc2c(=O)c(C(=O)Nc3c(F)cccc3F)cn(-c3ccc(F)cc3F)c2n1 [Example 52, 1-(2,4-Difluorophenyl)-N-(2,6-difluorophenyl)-7-(dimethylamino)-4-oxo-1,4-dihydro-1,8-naphthyridine-3-carboxamide]	104
CN(C)c1ccc2c(=O)c(C(=O)NC(C)(C)c3c(F)cccc3F)cn(-c3ccc(F)cc3F)c2n1 [Example 53, 1-(2,4-Difluorophenyl)-N-[2-(2,6-difluorophenyl)propan-2-yl]-7-(dimethylamino)-4-oxo-1,4-dihydro-1,8-naphthyridine-3-carboxamide]	58
Cc1cccc(C)c1NC(=O)c1cn(-c2ccc(F)cc2F)c2nc(N(C)C)ccc2c1=O [Example 54, 1-(2,4-Difluorophenyl)-7-(dimethylamino)-N-(2,6-dimethylphenyl)-4-oxo-1,4-dihydro-1,8-naphthyridine-3-carboxamide]	85
CN(C)c1ccc2c(=O)c(C(=O)Nc3c(Cl)cccc3Cl)cn(-c3ccc(F)cc3F)c2n1 [Example 55, N-(2,6-Dichlorophenyl)-1-(2,4-difluorophenyl)-7-(dimethylamino)-4-oxo-1,4-dihydro-1,8-naphthyridine-3-carboxamide]	36
O=C(NC12CC3CC(CC(C3)C1)C2)c1cn(-c2ccc(F)cc2F)c2nc(N3CC[C@H](F)C3)ccc2c1=O [Example 61, 1-(2,4-Difluorophenyl)-7-[(3S)-3-fluoropyrrolidin-1-yl]-4-oxo-N-(tricyclo[3.3.1.1^3,7]dec-1-yl)-1,4-dihydro-1,8-naphthyridine-3-carboxamide]	16
O=C(NC12CC3CC(CC(F)(C3)C1)C2)c1cn(-c2ccc(F)cc2F)c2nc(N3CC[C@H](F)C3)ccc2c1=O [Example 62, 1-(2,4-Difluorophenyl)-7-[(3S,)-3-fluoropyrrolidin-1-yl]-N-(3-fluorotricyclo[3.3.1.1^3,7]dec-1-yl)-4-oxo-1,4-dihydro-1,8-naphthyridine-3-carboxamide]	17
O=C(NC12CCC(F)(CC1)CC2)c1cn(-c2ccc(F)cc2F)c2nc(N3CC[C@H](F)C3)ccc2c1=O [Example 63, 1-(2,4-Difluorophenyl)-N-(4-fluorobicyclo[2.2.2]oct-1-yl)-7-[(3S)-3-fluoropyrrolidin-1-yl]-4-oxo-1,4-dihydro-1,8-naphthyridine-3-carboxamide]	40
O=C(NC12CC3CC(CC(C3)C1)C2)c1cn(-c2ccc(F)cc2F)c2nc(N3CCC(F)(F)C3)ccc2c1=O [Example 73, 1-(2,4-Difluorophenyl)-7-(3,3-difluoropyrrolidin-1-yl)-4-oxo-N-(tricyclo[3.3.1.1^3,7]dec-1-yl)-1,4-dihydro-1,8-naphthyridine-3-carboxamide]	73
O=C(NC12CC3CC(CC(C3)C1)C2)c1cn(-c2ccc(F)cc2F)c2nc(N3CC(F)(F)C(F)(F)C3)ccc2c1=O [Example 77, 1-(2,4-Difluorophenyl)-4-oxo-7-(3,3,4,4-tetrafluoropyrrolidin-1-yl)-N-(tricyclo[3.3.1.1^3,7]dec-1-yl)-1,4-dihydro-1,8-naphthyridine-3-carboxamide]	666
O=C(NC12CC3CC(CC(C3)C1)C2)c1cn(-c2ccc(F)cc2F)c2nc(NCCO)ccc2c1=O [Example 79, 1-(2,4-Difluorophenyl)-7-[(2-hydroxyethyl)amino]-4-oxo-N-(tricyclo[3.3.1.1^3,7]dec-1-yl)-1,4-dihydro-1,8-naphthyridine-3-carboxamide]	144
CN(CCO)c1ccc2c(=O)c(C(=O)NC34CC5CC(CC(C5)C3)C4)cn(-c3ccc(F)cc3F)c2n1 [Example 82, 1-(2,4-Difluorophenyl)-7-[(2-hydroxyethyl)(methyl)amino]-4-oxo-N-(tricyclo[3.3.1.1^3,7]dec-1-yl)-1,4-dihydro-1,8-naphthyridine-3-carboxamide]	60
O=C(NC12CC3CC(CC(C3)C1)C2)c1cn(-c2ccc(F)cc2F)c2nc(NCCF)ccc2c1=O [Example 83, 1-(2,4-Difluorophenyl)-7-[(2-fluoroethyl)amino]-4-oxo-N-(tricyclo[3.3.1.1^3,7]dec-1-yl)-1,4-dihydro-1,8-naphthyridine-3-carboxamide]	110
